Measured values published in patent publication US8410309B2, “Phenoxy carboxylic acid compounds and compositions for delivering active agents” (Emisphere Technologies, Inc., priority 1999, dated 2013).
Values joined by “and” are separate entries in the source; they are usually repeats but may differ in a detail not shown here. Equal entries are not always repeated. Where two headings read alike, the source gives them in different places. Values belong to the compound of their own block, whether it stands above or below them.

Assays:
[1] = Daptomycin oral delivery, plasma daptomycin by HPLC; type: in vivo, Sprague-Dawley rats; details: rats, delivery agent compound dose 200 mg/kg, daptomycin dose 50 mg/kg, volume dose 1 mL/kg
Description: Dosing solutions containing a delivery agent compound and daptomycin (Cubist Pharmaceuticals, Cambridge, Mass.) were prepared in 0.9% normal saline. […] This mixture was vortexed and placed in a sonicator (about 37° C.). The pH was adjusted to about 7.0-7.5 with aqueous HCl or NaOH. […] The mixture was vortexed to produce a uniform solution, also using sonication if necessary. The delivery agent compound solution was mixed with daptomycin from a stock solution (200 mg daptomycin/mL in 0.9% normal saline and the pH adjusted, if necessary, to between 6.0-7.0 with NaOH or HCl). The stock solution was stored frozen (−20° C.) wrapped in foil, then thawed and warmed gradually to about 25° C. before using. The delivery agent-daptomycin mixture was vortexed at low speed to produce a uniform solution. The pH was adjusted to about 7.0-7.5 with aqueous NaOH. The solution was then diluted with 0.9% normal saline to the desired volume (usually 2.0 ml) and concentration and stored wrapped in foil before use.
(§1) The typical dosing and sampling protocols were as follows.
Heparinized rat blood samples were collected via the ventral tail artery, typically at 0.25, 0.5, 0.75, 1.0, 2.0, and 4.0 hours after dosing, and stored on ice. Blood samples were then spun (centrifuged) at 11,500 rpm for 4 minutes at 4° C. to obtain the plasma (supernatant), which was stored at −70° C. The plasma daptomycin concentrations were measured by isocratic reversed phase HPLC, keeping samples at 4° C. during analysis. Blank plasma studies show baseline values of zero.
Daptomycin blood concentrations results from the individual animals in each dosage group were averaged for each time point.

[2] = Low molecular weight heparin (LMWH) oral/intracolonic delivery, plasma LMWH by anti-Factor Xa assay; type: in vivo, Sprague-Dawley rats; details: rats
Summary of the method: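 LMWH (parnaparin) plus delivery agent in 25% aqueous propylene glycol, pH about 7, given orally or intracolonically. Citrated blood drawn by cardiac puncture under ketamine (88 mg/kg), typically at 0.5–4.0 h post-dose. Plasma LMWH measured by chromogenic anti-Factor Xa assay; peak of mean plasma concentrations reported.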

[3] = Heparin oral/intracolonic delivery, clotting time by activated partial thromboplastin time (APTT); type: in vivo, Sprague-Dawley rats; details: rats, baseline about 20 seconds
Summary of the method: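 Heparin sodium with a delivery agent in 25% aqueous propylene glycol, pH about 7, was dosed by oral gavage or intracolonically. Citrated cardiac blood was taken under ketamine (88 mg/kg) at 0.25, 0.5, 1.0 and 1.5 h after dosing. Absorption was read as a rise in APTT clotting time.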

[4] = Salmon calcitonin (sCT) oral delivery, serum sCT by EIA; details: rats, delivery agent compound dose 50 mg/kg, sCT dose 100 μg/kg
Description: (§2) Oral dosing (PO) compositions of a delivery agent compound and salmon calcitonin (sCT) in deionized water were prepared as described in Table 2 below. […] Either the sodium salt of the compound was used or the free acid was converted to the sodium salt by stirring the resultant solution and adding one equivalent of sodium hydroxide (1.0 N) and diluting with water. The solution was vortexed, then heated (about 37° C.) and sonicated. The pH was adjusted to about 7 (about 6.5 to 8.5) with NaOH or HCl. 90 μg sCT from a sCT stock solution (2 mg/ml made by adding 10001 pH 4 phosphate buffer to sCT and allowing it to go into solution by sitting for about 10-20 minutes and periodically gently inverting) was added to the solution.
(§3) The typical dosing and sampling protocols were as follows. Male Sprague-Dawley rats weighing between 200-250 g were fasted for 24 hours and administered ketamine (44 mg/kg) and chlorpromazine (1.5 mg/kg) 15 minutes prior to dosing and again as needed to maintain anesthesia. A dosing group of five animals was administered one of the dosing solutions. For oral dosing, an 11 cm Rusch 8 French catheter was adapted to a 1 ml syringe with a pipette tip. The syringe was filled with dosing solution by drawing the solution through the catheter, which was then wiped dry. The catheter was placed down the esophagus leaving 1 cm of tubing past the incisors. Solution was administered by pressing the syringe plunger.
(§4) Blood samples were collected serially from the tail artery, typically at time=0, 10, 20, 30, 60 and 90 minutes. […] Numbers were adjusted according to baseline values obtained at time=0. The results from the animals in each dosing group were averaged for each time point.

[5] = Interferon oral delivery, serum IFN by immunoassay; type: in vivo, Sprague-Dawley rats; details: rats, delivery agent compound 200 mg/kg, IFN 1 mg/kg, 1 ml/kg
Description: Dosing solutions of delivery agent compound and human interferon (IFN) were prepared in deionized water. […] This mixture was vortexed and placed in a sonicator (about 37° C.). The pH was adjusted to about 7.0 to 8.5 with aqueous NaOH. The mixture was vortexed to produce a uniform suspension or solution, also using sonication and heat if necessary.
as §1
Serum IFN concentrations were quantified using Cytoscreen Immunoassay Kit for human IFN-alpha (catalog # KHC4012 from Biosource International, Camarillo, Calif.). Previous studies indicated baseline values of about zero.

[6] = Insulin oral delivery, serum human insulin by ELISA; details: rats
[7] = Parathyroid hormone (PTH 1-34) oral/intracolonic delivery, serum PTH by radioimmunoassay; details: rats, oral (PO); delivery agent compound dose 100 mg/kg, PTH dose 200 μg/kg, volume dose 1 ml/kg
Description: Oral gavage (PO) and/or intracolonic (IC) dosing solutions of delivery agent compound and human parathyroid hormone residues 1-34 (PTH) in deionized water were prepared. A solution of the compound was made either with the sodium salt of the delivery agent compound or by converting the free acid to its sodium salt.
The typical dosing and sampling protocols were as follows. Male Sprague-Dawley rats weighing between 200-250 g were fasted for 24 hours and administered ketamine (44 mg/kg) and chlorpromazine (1.5 mg/kg) 15 minutes prior to dosing and again as needed to maintain anesthesia. A dosing group of five animals was administered one of the dosing solutions. For oral gavage (PO), an 11 cm Rusch 8 French catheter was adapted to a 1 ml syringe with a pipette tip. The syringe was filled with dosing solution by drawing the solution through the catheter, which was then wiped dry. The catheter was placed down the esophagus leaving 1 cm of tubing past the incisors. The dosing solution was administered by pressing the syringe plunger. For intracolonic (IC) dosing, a 7.5 cm Rusch catheter tube (French 8 or 6) was adapted to a syringe with an Eppendorf pipette tip. The syringe was filled with the dosing solution by drawing the solution through the catheter tube. The catheter tube was wiped dry. K-Y jelly was applied to the tip, avoiding contact with the eye of the tube, and the tube was inserted into the colon through the anus until the tube was no longer visible. The dosing solution was injected by pressing the syringe plunger, and the tube was removed.
Previous studies indicated baseline values of about zero. Results from the animals in each group were averaged for each time point.

[8] = Insulin pulmonary delivery, serum insulin by ELISA, ratio to insulin-alone control; type: in vivo, Sprague-Dawley rats; details: Table 9 pulmonary delivery, rats; volume 1 ml/kg, delivery agent compound 3 mg/kg, insulin 100 mg/kg (so in the source)
Description: Dosing compositions of delivery agent compound and human insulin in water were prepared. Typically, to 1.5 mg of delivery agent compound was added deionized water to bring the volume to 1.0 ml, and the solution was vortexed. […] The pH was adjusted to between about 7.0 to 8.5 with NaOH or HCl. […] The final delivery agent compound dose, insulin dose and volume dose amounts are listed below in Table 9.
The typical dosing and sampling protocols were as follows. […] A control group of five animals was dosed insulin alone. A tracheal instillator for rodents, equipped with light (available from Penn Century, Inc., Pittsburgh, Pa.) was filled with dosing solution and inserted down the throat until the needle went into the trachea (confirmed visually). The dosing solution was administered by pressing the plunger.
Blood samples from each animal were collected serially from the tail artery, typically at 5, 15, 30, 60 and 120 minutes after dosing. […] The ratio of the area under the curve (AUC) for the test group versus that of the control group is reported below. The ratio of the maximum serum insulin concentration (Cmax) for the test group versus that of the control group is also reported below.

[9] = rat, in vivo, po, 150 mg/kg
Description: as §2, §3, §4

[10] = IC, delivery agent compound 50 mg/kg, LMWH 750 IU/kg, 1 ml/kg, 50 mg/kg
[11] = IC (intracolonic), delivery agent compound 50 mg/kg, heparin 25 mg/kg, volume dose 1 ml

Mean plasma Cmax [daptomycin] ± SD [1]: 16110 ± 17580 ng/mL | Mean Peak Plasma LMWH Concentration ± SD ([2]; IC, delivery agent compound 10 mg/kg, LMWH 750 IU/kg, 1 ml/kg): 0.2 ± 0.077 IU/ml | Mean Peak Plasma LMWH Concentration ± SD ([2]; IC, delivery agent compound 50 mg/kg, LMWH 751 IU/kg, 1 ml/kg): 1.5 ± 0.23 IU/ml | Mean Peak Plasma LMWH Concentration ± SD ([2]; PO, delivery agent compound 300 mg/kg, LMWH 3000 IU/kg, 3 ml/kg): 0.137 ± 0.18 IU/ml | Mean Peak Serum sCT (pg/ml ± SD) (SE) ([4]; dose volume 0.5 (ml)): 445 ± 221 pg/mL | Mean Peak Serum sCT (pg/ml ± SD) (SE) ([4]; dose volume 1 (ml)): 316 ± 476 pg/mL | Mean Peak Serum [IFN] ± SD [5]: 1.6362 ± 1.68 ng/mL | Mean Peak Serum [INS] ± SD ([6]; delivery agent compound 100 mg/kg, insulin 3 mg/kg, 0.5 ml/kg): 205.4 ± 333.4 μU/ml | Mean Peak Serum [PTH] (pg/mL) ± SD [7]: 276 ± 252 pg/mL
SMILES: CC(=O)c1ccccc1OCCCCCCCC(=O)O [Compound 12]
Mean Peak Plasma LMWH Concentration ± SD [2, 10]: 1.7 ± 0.308 IU/ml and 1.74 ± 0.304 IU/ml and 2.012 ± 0.124 IU/ml and 1.498 ± 0.462 IU/ml | Mean Peak APTT ± SD ([3]; PO (oral gavage), delivery agent compound 300 mg/kg, heparin 100 mg/kg, volume dose 3 ml): 201.4 ± 45.7 s

Cmax (serum insulin) [8]: 130.9724 μU/ml | melting point: 60 to 64 °C
SMILES: O=C(O)CCCCCCCOc1ccccc1O [Compound 7, 8-(2-hydroxyphenoxy)octanoic acid]
Mean Peak APTT ± SD [3, 11]: 130.5 ± 42.6 s and 92 ± 40.3 s and 99.4 ± 25.5 s

SMILES: NC(=O)c1ccccc1OCCCCCCCC(=O)O [Compound 30, 8-(2-carboxamidophenoxy)caprylic acid]
Mean plasma Cmax [daptomycin] ± SD [1]: 3060 ± 780 ng/mL | Mean Peak Plasma LMWH Concentration ± SD [2, 10]: 0.162 ± 0.094 IU/ml and 0.288 ± 0.152 IU/ml | Mean Peak APTT ± SD [3, 11]: 50.9 ± 20.5 s | Mean Peak Serum [INS] ± SD ([6]; delivery agent compound 200 mg/kg, insulin 0.5 mg/kg, 1 ml/kg): 21.88 ± 13.4 μU/ml | Mean Peak Serum [PTH] (pg/mL) ± SD [7]: 78 ± 71 pg/mL

SMILES: O=C(O)COc1ccccc1O [Compound 3]
Mean Peak APTT ± SD [3, 11]: 16.046 ± 0.481 s and 16.984 ± 1.45 s | Mean Peak Serum sCT (pg/ml ± SD) (SE) [9]: 0 ± 81 pg/mL
